# Where “and” joins values, the source holds several entries; their conditions need not be identical. Equal entries are not always repeated.
# What was measured:
# [1] = target: serotonin transporter (SERT or 5-HT) (Rattus norvegicus, UniProt P31652)
# [2] = Clinical Opiate Withdrawal Scale (COWS) after abrupt discontinuation, MAD study; conditions: abrupt discontinuation after 10 consecutive days
# [3] = Bond-Lader Visual Analog Scale (cognitive and psychotomimetic effects), SAD and MAD studies
# [4] = 2-3-5 hours after single dose 5 mg, SAD
# serotonin transporter (SERT or 5-HT), sequence (P31652 whole entry): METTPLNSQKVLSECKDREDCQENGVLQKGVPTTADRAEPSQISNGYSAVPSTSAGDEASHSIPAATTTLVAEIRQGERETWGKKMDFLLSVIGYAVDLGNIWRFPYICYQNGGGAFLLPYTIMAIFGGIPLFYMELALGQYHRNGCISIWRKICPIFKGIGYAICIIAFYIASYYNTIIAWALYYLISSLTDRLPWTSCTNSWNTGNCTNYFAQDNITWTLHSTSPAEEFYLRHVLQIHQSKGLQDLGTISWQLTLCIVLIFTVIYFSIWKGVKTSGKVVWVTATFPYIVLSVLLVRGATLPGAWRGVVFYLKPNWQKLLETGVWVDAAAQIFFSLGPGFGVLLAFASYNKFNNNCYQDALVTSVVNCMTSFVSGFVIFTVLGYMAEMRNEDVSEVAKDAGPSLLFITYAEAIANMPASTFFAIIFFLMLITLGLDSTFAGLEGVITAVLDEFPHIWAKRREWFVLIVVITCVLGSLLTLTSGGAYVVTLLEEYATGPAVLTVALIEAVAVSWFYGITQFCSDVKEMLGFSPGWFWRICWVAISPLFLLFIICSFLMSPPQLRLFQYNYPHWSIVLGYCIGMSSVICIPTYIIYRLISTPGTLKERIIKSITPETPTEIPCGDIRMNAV
smiles,measurement,setting,value
CCC(=O)C(C[C@H](C)N(C)C)(c1ccccc1)c1ccccc1 [d-methadone],inhibition,[1],91% and 92.7% and 89.3%
same,Withdrawal symptoms (COWS),[2],did not cause symptoms of withdrawal
same,"Bond-Lader VAS mean score: I am feeling drowsy (0: Alert, 100: Drowsy)",[3]; [4],19.1
same,"Bond-Lader VAS mean score: I am feeling proficient (0: Incompetent, 100: Proficient)",[3]; [4],93.6
same,"Bond-Lader VAS mean score: I am feeling quick witted (0: Mentally slow, 100: Quick witted)",[3]; [4],91.8
same,"Bond-Lader Visual Analog Scale, domains of mental alertness and cognitive functions, vs placebo arm","[3]; SAD 5 mg single dose, 2-3-5 hours post dose",improved scores
same,Cognitive deficits or psychotomimetic effects (Bond-Lader Visual Analog Scale),[3]; healthy subjects of SAD and MAD studies,did not cause clinically significant cognitive deficits or psychotomimetic effects
